According to paper PMC6689897, “Drugging an undruggable pocket on KRAS” (Proceedings of the National Academy of Sciences of the …, 2019):

Experiments:
GTP-KRASG12D::SOS1 = GTP-KRASG12D::SOS1 (Homo sapiens, UniProt P01116, G12D); test: Alpha Screen PPI assay; format: biochemical; conditions: duplicate
Protocol: page 6: 217 The coordinates and structure factors of the structures have been deposited at the 218 Protein Data Bank with the accession codes PDB Code 6GJ5, 6GJ6, 6GJ7, 6GJ8. 219 220 Alpha Screen Assays 221 Measurements of various protein-protein interactions were performed using the Alpha 222 Screen technology developed by Perkin Elmer. Recombinant RAS proteins (H-, […] RAS variants; all KRAS variants are based on KRAS isoform 4B (uniprot id P01116-2); 224 KRAS (G12D) 1-169, N-terminal 6His-tag, C-terminal avi-tag was from Xtal 225 BioStructures, Inc., KRAS (G12C) 1-169, C-terminal avi-tag, biotinylated, mutations: 226 C51S, C80L, C118S, NRAS(wt) 1-172, C-terminal avi-tag, biotinylated; HRAS(wt) 1- 227 166, C-terminal avi-tag, biotinylated). Biotinylation was performed in vitro with 228 recombinant BirA biotin-protein ligase as recommended by the manufacturer (Avidity 229 LLC, Aurora, Colorado, USA). Interacting proteins such as SOS1 (564-1049, N-terminal 230 GST-tag, TEV cleavage site), cRaf (1-303, N-terminal GST-tag, TEV cleavage site) and 231 PI3KA- RBD (160-317, N-term-HIS_GST-tag) were expressed as glutathione S 232 transferase (GST) fusions. […] Single oxygen induced fluorescence was 246 measured at an Enspire multimode plate reader (Perkin Elmer) according to the 247 manufacturer's recommendations. Data were analyzed using the GraphPad Prism data 248 software. […]

NCI-H358 cells = test: RAS GTP detection (Ras G-LISA activation assay); format: cell-based, human; conditions: for steady-state RAS GTP levels: high growth factor conditions; for formation of GTP-loaded KRAS / RAS GTP levels: starved 24 h low serum, 2 h compound, then EGF
Protocol: When we incubated NCI-H358 cells with 50 µM 1 for 1 h, as previously observed, no change in GTP-KRAS was observed. In contrast, 20 µM ARS-1620 caused an 80% reduction of the GTP-bound RAS pool. When the 2 compounds were combined, only a 30% reduction of GTP-RAS was observed, which is in line with inhibiting the binding of GAPs with KRAS (Fig. 6D). […]
332 RAS GTP detection (Ras G-LISA Activation assay):
333 Ras-GTP levels were analyzed using a Ras G-LISA assay kit (Cytoskeleton Inc.,
335 600.000 cells were seeded in 6 wells and grown to 70% confluence. Cells were washed
337 provided protease inhibitor cocktail. Lysates were quickly frozen in liquid nitrogen
338 and stored at -80°C until further usage. After normalizing protein concentration, 40µg
339 of protein was added in duplicates to wells of the Ras G-LISA plate coated with Ras
340 GTP-binding protein and incubated at 4°C for 30 minutes while shaking at 400rpm.
341 After washing, antigen presenting buffer was added for 2 minutes. To measure bound
342 Ras GTP levels, wells were subsequently incubated with an anti-Ras primary antibody
343 (1:50) followed by a HRP-labeled secondary antibody (1:500) and finally by adding a
344 HRP detection reagent. Absorbance was measured by 490nm using an EnSpire
345 Multimode Reader (Perkin Elmer). Background was determined by a negative control
346 well and subtracted from all samples. […]

GTP-KRASG12D::SOS1, sequence (P01116 1-169 isoform P01116-2 G12D): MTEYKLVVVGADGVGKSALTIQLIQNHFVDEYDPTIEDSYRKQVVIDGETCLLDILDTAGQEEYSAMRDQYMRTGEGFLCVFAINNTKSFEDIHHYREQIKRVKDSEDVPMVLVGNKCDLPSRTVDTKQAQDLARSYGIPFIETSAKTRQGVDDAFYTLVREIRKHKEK

Row | SMILES | IC50 (GTP-KRASG12D::SOS1) [nM] | reduction of the GTP-bound RAS pool (NCI-H358 cells; 20 µM ARS-1620) [%] | steady-state RAS GTP levels (NCI-H358 cells) | formation of GTP-loaded KRAS / RAS GTP levels (NCI-H358 cells) | reduction of GTP-RAS (NCI-H358 cells; 50 µM 1 combined with 20 µM ARS-1620) [%] | change in GTP-KRAS (NCI-H358 cells; 50 µM 1 for 1 h)
1 | C=CC(=O)N1CCN(c2ncnc3c(F)c(-c4c(O)cccc4F)c(Cl)cc23)CC1 [ARS-1620, reference compound] | > 10000 | 80 | strongly reduced | reduced the RAS GTP levels even below the DMSO control |  | 
2 | Cn1cnc(Cn2ccc3ccc(CNCc4[nH]c5ccccc5c4[C@H]4NC(=O)c5ccc(O)cc54)cc32)c1 [Compound 1] | 490 |  | does not change | dose-dependent inhibition | 30 | no change
